Data published in publication PMC2580802 (Cell, 2008).
Values after ≈ are worked out from the molar mass of the structure shown. Read-outs that look alike come from different tables or passages of the source.

Assays:
[1] = system: E. coli with wild-type RNAP β′ and wild-type RNAP β; assay: microbe, parasite or virus in culture; type: cell-based; details: Escherichia coli
[2] = system: E. coli DH21f2tolC; type: cell-based; details: assessed with E. coli DH21f2tolC; J.M. and R.H.E., unpublished
[3] = target: T1, wild-type RNAP (Escherichia coli, UniProt P0A8T7+P0A8V2)
[4] = target: T1, wild-type RNAP; remark: listed apart in the source
[5] = system: bacterial RNAP; details: read-out: IC50, inhibition of bacterial RNAP; cited from earlier work
[6] = system: eukaryotic RNAP II; details: cited from earlier work
[7] = system: Staphylococcus aureus; details: ref Irschik et al., 1995; J.M. and R.H.E., unpublished; cited from earlier work
[8] = system: Escherichia coli DH21tolC; details: ref Irschik et al., 1995; J.M. and R.H.E., unpublished; cited from earlier work
[9] = system: E. coli mutants with single substitutions in RNAP β′ or β subunit; type: cell-based
[10] = target: T2, Myx^r RNAP ([Arg345]β′-RNAP) (Escherichia coli, UniProt P0A8T7+P0A8V2, K345R); type: biochemical, E. coli
[11] = target: T. thermophilus RNAP holoenzyme (Thermus thermophilus, UniProt Q8RQE8+Q8RQE9); type: biochemical; details: read-out: IC50, inhibition of T. thermophilus RNAP holoenzyme
[12] = target: T2, Myx^r RNAP ([Arg345]β′-RNAP)
[13] = system: Enterobacter cloacae; details: cited from earlier work

In the case of C/C=C/C/C=C(\C)C(O)CC/C(C)=C/C=C(\C)C(=O)c1c(O)cc([C@H](C)CC/C=C/NC(=O)OC)oc1=O (stereo partly shown) [Cor, corallopyronin A], the MIC [1] is reported as 1.6 µg/mL (≈ 3.03 µM), the bacteriocidal activity [2] is reported as “bacteriocidal” and the “effect on transcription initiation” value [3] is reported as “inhibits transcription initiation”. For the same compound, the “effect on interaction of RNAP with promoter DNA” value [4] was “prevents interaction of RNAP with promoter DNA”, the IC50 [5] was ~4000 nM and the “inhibition of eukaryotic RNAP II” value [6] was “does not inhibit”.

In the case of C/C(=C\Cc1ccccc1)CC[C@@]1(O)C[C@H]2C[C@@H](C/C(C)=C/C/C=C/C/C(CC(=O)O)=C\C(=O)O2)O1 [Rip, ripostatin A], the bacteriocidal activity [2] is reported as “bacteriocidal”, the “effect on transcription initiation” value [3] is reported as “inhibits transcription initiation” and the “effect on interaction of RNAP with promoter DNA” value [4] is reported as “prevents interaction of RNAP with promoter DNA”. The MIC [7] was ≤ 1 µg/mL, the MIC [8] was ≤ 1 µg/mL and the IC50 [5] was ~800 nM. For the same compound, the “inhibition of eukaryotic RNAP II” value [6] was “does not inhibit”.

For CCC/C(C)=C/C=C(\C)C(=O)c1c(O)cc([C@H](C)CC/C=C/NC(=O)OC)oc1=O [Myx, myxopyronin A], the “increase in MIC” value ([9]; all four Myx^r mutants from random mutagenesis (Table S1)) was ≥ 2 fold, the “increase in MIC” value ([9]; three of four Myx^r mutants from random mutagenesis (Table S1)) was ≥ 32 fold and the bacteriocidal activity [2] was “bacteriocidal”. For the same compound, the “inhibition of transcription with Myx^r RNAP” value [10] was “abrogates inhibition”, the IC50 [11] was 20 µM and the IC50 ([3]; read-out: IC50, inhibition of formation of abortive products, run-off transcription, promoter DNA fragment) was 1700 ± 600 nM. The “inhibition of formation of stable, heparin-resistant RNAP-DNA complex” value ([4]; fork-junction DNA fragment (lacks positions −11 to +15 of template strand)) was “does not inhibit”, the “inhibition of formation of stable, heparin-resistant RNAP-DNA complexes” value ([4]; nontemplate-strand oligonucleotide (positions −21 to +15)) was “does not inhibit” and the IC50 ([4]; read-out: IC50, inhibition of formation of stable, heparin-resistant RNAP-promoter open complex, promoter DNA fragment) was 800 ± 300 nM. For the same compound, the “inhibition of open-complex formation with Myx^r RNAP” value [12] was “abrogates inhibition”, the MIC [13] was ≤ 12.5 µg/mL and the IC50 [5] was ~1000 nM. The “inhibition of eukaryotic RNAP II” value [6] was “does not inhibit”.

For CO[C@H]1/C=C/O[C@@]2(C)Oc3c(C)c(O)c4c(O)c(c(/C=N/N5CCN(C)CC5)c(O)c4c3C2=O)NC(=O)/C(C)=C\C=C\[C@H](C)[C@H](O)[C@@H](C)[C@@H](O)[C@@H](C)[C@H](OC(C)=O)[C@@H]1C [Rif, rifampicin], the “cross-resistance of Myx^r mutants” value ([9]; Myx^r mutants (Table 1)) was “do not exhibit cross-resistance” and the MIC [1] was 0.1 µg/mL (≈ 0.122 µM).
